In patent US11220509B2, “Substituted imidazo[1,2-c]pyrimidines as PRC2 inhibitors” (Mirati Therapeutics, Inc., priority 2018, dated 2022) one finds IC50 data, which are given here for eight compounds.

Read-outs that look alike come from different tables or passages of the source. Bounds are passed on as bounds.

For assay [1], the target named is purified human, His-tagged PRC2 complex (Homo sapiens (Human), UniProt O75530). As to the kind of experiment: Hot Spot HMT assay: inhibition of PRC2 enzymatic activity (transfer of tritiated methyl from SAM to core histone H3). The assay is classed as biochemical. The conditions noted are these: 10 nM PRC2 complex, 0.05 mg/ml core histone H3, 1 uM 3H-SAM, 1 hr at 30° C.; read-out: IC50, Inhibition of PRC2-mediated Enzymatic Activity. From the text: The assay uses purified human, His-tagged PRC2 complex, including N-terminal His-tagged EZH2 enzyme. N-terminal Flag-tagged embryonic ectoderm development protein (EED), N-terminal His-tagged suppressor of zeste 12 (SUZ12), N-terminal His-tagged AEBP2, and N-terminal His-tagged RbAp48. In this assay, the transfer of the tritiated methyl group from radiolabeled S-adenosyl methionine (SAM) to purified core histone protein by EZH2 is quantitated after filtration to determine the activity of the core PRC2 complex in the presence and absence of compound.
Chain of purified human, His-tagged PRC2 complex (Q15910 whole entry): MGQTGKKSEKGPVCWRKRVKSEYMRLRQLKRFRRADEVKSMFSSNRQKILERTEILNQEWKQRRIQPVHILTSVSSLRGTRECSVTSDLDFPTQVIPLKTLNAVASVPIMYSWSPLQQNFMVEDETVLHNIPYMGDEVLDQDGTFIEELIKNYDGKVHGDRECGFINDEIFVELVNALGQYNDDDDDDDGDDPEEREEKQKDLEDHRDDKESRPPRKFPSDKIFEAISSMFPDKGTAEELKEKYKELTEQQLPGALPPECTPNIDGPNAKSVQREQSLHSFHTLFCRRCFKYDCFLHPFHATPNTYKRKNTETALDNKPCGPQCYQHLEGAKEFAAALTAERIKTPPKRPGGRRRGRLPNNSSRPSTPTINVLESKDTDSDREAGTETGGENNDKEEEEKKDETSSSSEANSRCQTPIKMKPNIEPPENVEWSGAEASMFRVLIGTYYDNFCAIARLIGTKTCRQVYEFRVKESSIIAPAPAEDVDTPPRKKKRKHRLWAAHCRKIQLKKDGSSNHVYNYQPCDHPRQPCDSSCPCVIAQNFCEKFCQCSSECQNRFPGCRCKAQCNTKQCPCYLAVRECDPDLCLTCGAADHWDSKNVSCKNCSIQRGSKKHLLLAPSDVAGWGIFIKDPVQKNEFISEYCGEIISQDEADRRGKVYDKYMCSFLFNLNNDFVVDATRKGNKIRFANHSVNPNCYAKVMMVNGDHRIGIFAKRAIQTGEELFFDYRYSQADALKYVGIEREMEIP
Chain of purified human, His-tagged PRC2 complex (O75530 whole entry): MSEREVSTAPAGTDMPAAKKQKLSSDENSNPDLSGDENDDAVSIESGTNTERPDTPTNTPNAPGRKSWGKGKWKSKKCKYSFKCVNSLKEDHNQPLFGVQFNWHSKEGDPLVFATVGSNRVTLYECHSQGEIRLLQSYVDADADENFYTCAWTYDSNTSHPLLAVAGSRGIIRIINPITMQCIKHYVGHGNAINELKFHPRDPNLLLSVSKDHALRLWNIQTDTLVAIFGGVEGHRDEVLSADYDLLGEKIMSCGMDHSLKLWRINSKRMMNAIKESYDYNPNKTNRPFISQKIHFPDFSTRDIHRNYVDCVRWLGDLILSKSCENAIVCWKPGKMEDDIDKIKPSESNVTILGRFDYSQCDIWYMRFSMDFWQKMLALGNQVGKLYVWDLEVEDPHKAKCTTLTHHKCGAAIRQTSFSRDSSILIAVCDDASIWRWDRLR
Chain of purified human, His-tagged PRC2 complex (Q15022 whole entry partner): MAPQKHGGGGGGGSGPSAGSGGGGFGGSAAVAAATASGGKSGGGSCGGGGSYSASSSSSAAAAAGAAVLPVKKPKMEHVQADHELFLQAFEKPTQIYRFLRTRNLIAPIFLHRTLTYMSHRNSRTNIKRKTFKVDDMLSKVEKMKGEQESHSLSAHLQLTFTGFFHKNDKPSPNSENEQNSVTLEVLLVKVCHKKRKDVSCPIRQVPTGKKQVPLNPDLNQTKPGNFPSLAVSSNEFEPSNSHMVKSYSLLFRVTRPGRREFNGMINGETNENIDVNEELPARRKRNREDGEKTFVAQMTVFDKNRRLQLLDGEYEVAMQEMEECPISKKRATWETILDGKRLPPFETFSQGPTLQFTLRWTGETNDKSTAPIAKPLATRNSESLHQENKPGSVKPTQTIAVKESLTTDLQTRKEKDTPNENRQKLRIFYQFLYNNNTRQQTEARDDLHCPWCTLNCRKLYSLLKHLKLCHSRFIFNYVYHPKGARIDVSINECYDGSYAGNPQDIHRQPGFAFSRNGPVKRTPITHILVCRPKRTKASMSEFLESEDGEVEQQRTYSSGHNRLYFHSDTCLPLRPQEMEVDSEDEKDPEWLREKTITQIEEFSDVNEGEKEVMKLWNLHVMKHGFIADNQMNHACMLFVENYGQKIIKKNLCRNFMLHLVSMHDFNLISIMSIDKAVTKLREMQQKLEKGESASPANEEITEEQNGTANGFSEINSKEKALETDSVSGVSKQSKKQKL
Chain of purified human, His-tagged PRC2 complex (Q6ZN18 whole entry partner): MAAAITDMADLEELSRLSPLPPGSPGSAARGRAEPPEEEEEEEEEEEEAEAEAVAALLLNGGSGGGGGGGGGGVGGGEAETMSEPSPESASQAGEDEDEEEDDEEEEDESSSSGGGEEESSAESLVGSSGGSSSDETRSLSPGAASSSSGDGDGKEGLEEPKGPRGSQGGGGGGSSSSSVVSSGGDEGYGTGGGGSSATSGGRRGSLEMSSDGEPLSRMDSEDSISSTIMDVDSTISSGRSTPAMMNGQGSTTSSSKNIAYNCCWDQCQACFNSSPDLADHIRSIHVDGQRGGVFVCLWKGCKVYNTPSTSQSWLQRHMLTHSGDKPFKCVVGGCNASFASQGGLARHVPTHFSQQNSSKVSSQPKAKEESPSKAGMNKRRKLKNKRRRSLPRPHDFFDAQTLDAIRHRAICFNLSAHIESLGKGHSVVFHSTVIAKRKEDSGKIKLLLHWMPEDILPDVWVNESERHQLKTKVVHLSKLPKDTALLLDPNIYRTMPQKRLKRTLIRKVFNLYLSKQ
Chain of purified human, His-tagged PRC2 complex (Q09028 whole entry partner): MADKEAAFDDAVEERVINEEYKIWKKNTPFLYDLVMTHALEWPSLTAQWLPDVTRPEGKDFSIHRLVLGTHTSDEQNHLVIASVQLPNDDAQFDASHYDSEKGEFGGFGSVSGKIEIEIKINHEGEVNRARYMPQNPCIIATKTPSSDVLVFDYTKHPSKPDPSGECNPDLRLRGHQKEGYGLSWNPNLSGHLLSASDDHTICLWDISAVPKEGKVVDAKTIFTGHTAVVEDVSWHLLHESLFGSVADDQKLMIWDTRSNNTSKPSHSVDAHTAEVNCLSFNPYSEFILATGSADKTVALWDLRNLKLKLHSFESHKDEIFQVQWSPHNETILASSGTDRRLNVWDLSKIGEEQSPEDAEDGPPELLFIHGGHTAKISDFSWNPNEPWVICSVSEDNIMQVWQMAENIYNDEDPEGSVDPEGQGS
The initial starting concentration for the serial dilutions of each compound was 1.0 μM. […] SAH (S-(5-adenosyl)-L-homocysteine) was used as a positive control for assay validation.
An aliquot of each serial dilution of test compound was added to deep 384 well plate using Acoustic Technology instrument (Echo 550, LabCyte) containing reaction buffer (50 mM Tris-HCl (pH 8)), 0.01% Brij35, 1 mM EDTA, 1 mM DTT, 1 mM PMSF and 1% DMSO), 10 nM purified PRC2 complex and 0.05 mg/ml core histone H3 in a 5 μl volume. The reaction was mixed gently and then pre-incubated for 20 min at 30° C. The enzymatic reaction was initiated by adding 1 uM S-Adenosyl-L-[methyl-^3H]methionine and incubated for 1 hr at 30° C. After 1 hr, the reaction product was detected using a filter binding method and the amount of tritiated H3 core histone was quantitated using a scintillation counter. […] Key: A=<100 nM; B=>100 nM-<500 nM; and C=>500 nM.

Assay [2] has as its system Karpas 422 cells expressing mutant EZH2 (Y641N). As to the kind of experiment: Karpas 422 cell viability, CTG (Cell Titre Glo) assay. The conditions noted are these: Day 4, 7 or 11 measured, time point of the table not stated, read-out: IC50 (nM), Inhibiting Proliferation of Cells Expressing an Activating Mutant Form of EZH2. It counts as cell-based, human. On the procedure:
Karpas 422 cell line is a human B cell non-Hodgkin's lymphoma cell line established from a patient having DLBCL. This EZH2 heterozygotic cell line expresses a mutant form of EZH2 enzyme (Y641N) that increases histone H3 methylation and this mutation has been implicated in the tumorgenesis of lymphomas, such as DLBCL.
Karpas 422 cells (PHE cat no., 06101702) were cultured in RPMI medium supplemented with 20% fetal bovine serum and 1% penicillin/l % streptomycin and plated at a density of 1000 cells/90 μl/well in 96 well white assay plates. A dose response curve for compounds of the present invention was determined by adding a 10 μl aliquot of stock solutions of varying concentrations of compounds to the same medium in each well, over a concentration range of 10 μM using 3-fold dilutions to a final concentration of 1.5 nM. The plates were incubated at 37° C. for predetermined time periods, Day 4, Day 7, or Day 11, and the viability of the cells was measured using a CTG assay kit (Cell Titre Glo; Promega cat. no G7573) on Day 4 and Day 7 in accordance with the manufacturer's instructions.
For the viability assay for the Day 11 plates, the plates were subjected to centrifugation at 1100 rpm for five minutes on Day 7 and the supernatant was removed by aspiration. The cells were resuspended in 90 μl aliquot of the appropriate growth medium lacking the compound followed by addition of 10 μl of a 10× stock of the same compound at the same concentration. The viability of the Day 11 cells was measured using the CTG assay kit described above in accordance with the manufacturer's instructions. The IC50 values for each compound at each predetermined time point were calculated using Graph pad PRISM software and the results are shown in Table 15. A=≤250 nM; B=<250 nM-≤500 nM; and C=>500 nM.

For assay [3], the system named is histone H3 Lys27 trimethylation in Pfeiffer cells expressing mutant EZH2 (A677G). Nature of the assay: Tri-Methyl Histone H3 (Lys 27) sandwich ELISA in Pfeiffer cells. The assay is classed as cell-based. The conditions noted are these: Homo sapiens, 96 hours incubation, read-out: IC50 (nM), Inhibition of EZH2-mediated Histone H3 Trimethylation. The text has this: The Pfeiffer cell line was established from a […] from a patient having metastatic diffuse large B-cell lymphoma (DLBCL). This cell line expresses a mutant form of the EZH2 enzyme (A677G) that results in enhanced EZH2 activity leading to increased methylation of histone H3 Lys27. Increased trimethylation of histone H3 Lys27 is believed to be implicated in tumorgenesis and poor clinical prognosis in lymphomas (McCabe et al., (2012) Nature 492:108-112).
Inhibition of PRC2-mediated histone H3 methylation by compounds of Formula (I) was measured by ELISA using a Tri-Methyl Histone H3 (Lys 27) Sandwich ELISA Kit (Cell Signaling Tech #7866C) in accordance with the manufacturer's instructions. Briefly, Pfeiffer cells were cultured in RPMI medium supplemented with 10% fetal bovine serum and 1% penicillin and 1% streptoncin in 96 well culture plates at 37° C. to a density of 8000 cells/90 μl/well and the cells were harvested. A series of 3-fold serial dilutions of each test compound of Formula (I) were prepared in RPMI medium and added to the cells at final concentrations ranging from 1 μM to 0.15 nM. The plates were incubated at 37° C. for 96 hours.
After incubation, the cells were pelleted by centrifugation in a pre-cooled 4° C. rotor at 1,100 rpm for 10 min and the supernatant was removed by aspiration. The cell pellet was resuspended in 55 μl of Lysis Buffer (0.4M HCl) and incubated on ice with periodic shaking for 30 minutes. The lysed cells were subjected to centrifugation at 4,200 rpm for 10 min at 4° C. and the supernatant containing acid-soluble proteins was collected and the remainder discarded. The acid-soluble proteins were brought to a neutral pH by the addition of 20 μl of Neutralization Buffer (1 M Sodium phosphate, dibasic (pH 12.5), 2.5 mM DTT and 1 mM PMSF) and the neutralized lysates were analyzed by ELISA.
A 65 μl aliquot of each cell lysate was added to a well of a microwell strip, the microwells were sealed using tape and incubated either at 37° C. for two hours or at 4° C. overnight. After incubation, the tape was removed at the microwells were washed four times using 200 μl of 1× Wash Buffer. To each washed microwell, a 100 μl aliquot of an anti-trimethyl histone H3 Lys27 Detection Antibody solution was added and the microwells were incubated at 37° C. for one hour. The Detection Antibody solution was removed by aspiration and the wells were washed four times each using 200 μl of 1× Wash Buffer.
A 100 μl aliquot of an HRP-linked secondary antibody was added to each well, the wells were sealed with tape and incubated at 37° C. for 30 min. The HRP-linked secondary antibody solution was removed by aspiration and the wells were washed four times using 200 μl of 1× Wash Buffer. A 100 μl aliquot of a TMB substrate was added to each well, the wells were sealed with tape and incubated at 37° C. for 10 min or 25° C. for 30 min. The reaction was stopped by the addition of 100 μl aliquot of a STOP solution and the plate was shaken briefly. The degree of histone H3 trimethylation was determined using a spectrophotometric readout by measuring the absorbance at 450 nm and then calculating the amount of trimethylated histone H3. A=≤100 nM; B=>100 nM-≤500 nM; C=>500 nM and N.D.=not determined.

Regarding `Cc1cc(-c2cnc(NCc3c(F)ccc4occc34)n3cc(C#N)nc23)n(C)n1` [Example 28], the IC50 in assay [1] is below 100 nM; in assay [2] (Homo sapiens, 96 h), 250 to 500 nM.
For `N#Cc1cn2c(NCc3c(F)ccc4c3CCO4)ncc(-c3cnc(C4CC4)nc3)c2n1` [Example 70], the IC50 in assay [1] is below 100 nM; in assay [3] it was below 100 nM; in assay [2] (Homo sapiens, 96 h), at most 250 nM.
Regarding `Cc1nc(CN(C)C)ccc1-c1cnc(NCc2c(F)ccc3c2CCO3)n2cc(C#N)nc12` [Example 152], in assay [2], the IC50 is at most 250 nM.
For the compound `Cn1nc(C(=O)O)cc1-c1cnc(NCc2c(F)ccc3c2CCO3)n2cc(C#N)nc12` [Example 157, 5-(2-cyano-5-(((5-fluoro-2,3-dihydrobenzofuran-4-yl)methyl)amino)imidazo[1,2-c]pyrimidin-8-yl)-1-methyl-1H-pyrazole-3-carboxylic acid], the IC50 is below 100 nM in assay [3] and at most 250 nM in assay [2] (Homo sapiens, 96 h).
Consider `[2H]C([2H])(Nc1ncc(-c2ccc(CN(C)C)cc2)c2nc(C#N)cn12)c1c(F)ccc2c1CCO2` [Example 165, 8-(4-((dimethylamino)methyl)phenyl)-5-(((5-fluoro-2,3-dihydrobenzofuran-4-yl)methyl-d2)amino)imidazo[1,2-c]pyrimidine-2-carbonitrile], for which the IC50 in assay [3] is 100 to 500 nM; in assay [2] (Homo sapiens, 96 h) it was at most 250 nM.
As for `CN(C)C(=O)c1cc(-c2cnc(NCc3c(F)ccc4c3CCO4)n3cc(C#N)nc23)n(C)n1` [Example 170, 5-(2-cyano-5-(((5-fluoro-2,3-dihydrobenzofuran-4-yl)methyl)amino)imidazo[1,2-c]pyrimidin-8-yl)-N,N,1-trimethyl-1H-pyrazole-3-carboxamide], in assay [2], the IC50 lay within 250 to 500 nM.
With `Cc1cc(-c2cnc(NCc3c(F)ccc4c3CCO4)n3cc(C#N)nc23)ccn1` [Example 178, 5-(((5-fluoro-2,3-dihydrobenzofuran-4-yl)methyl)amino)-8-(2-methylpyridin-4-yl)imidazo[1,2-c]pyrimidine-2-carbonitrile], the IC50 in assay [1] is 100 to 500 nM; in assay [3], 100 to 500 nM; in assay [2] (Homo sapiens, 96 h), at most 250 nM.
For the compound `Cc1cc(-c2cnc(NCc3c(F)ccc4c3OCO4)n3cc(C#N)nc23)n(C)n1` [Example 228, 8-(1,3-dimethyl-1H-pyrazol-5-yl)-5-(((5-fluorobenzo[d][1,3]dioxol-4-yl)methyl)amino)imidazo[1,2-c]pyrimidine-2-carbonitrile], the IC50 in assay [1] is 100 to 500 nM; in assay [3], 100 to 500 nM; in assay [2] (Homo sapiens, 96 h), at most 250 nM.
